Drawing on PubChem BioAssay AID1399 (The Scripps Research Institute Molecular Screening Center, 2008), this text covers IC50 for 98 compounds.

Active and inactive are the calls of the source. Cut-off not given; nearly all actives show IC50 up to about 8.9 µM.

In this assay the target is Signal transducer and activator of transcription 3 (Homo sapiens) (UniProt P40763). Briefly: blockers of STAT3 signaling, concentration series – cell-based, dose response (AID 1399). To be noted: human cell STAT3 reporter inhibition.
One may read the IC50 as the concentration that inhibits the measured activity by half. With `CC(=O)N1CCc2cc(S(=O)(=O)NC3CCCc4ccccc43)ccc21` (stereo not drawn), the IC50 was 5.12 µM.
As for `COc1ccc2cc(-c3cc(C(=O)OCC(=O)Nc4c(C)n(C)n(-c5ccccc5)c4=O)c4ccccc4n3)ccc2c1`, the figure is 4.63 µM; as for `O=C(Nc1cccc(O)c1)C(=O)Nc1ccccn1`, 3.7 µM.
As for `C[C@@H]1O[C@@H](O[C@H]2C[C@@H](O)[C@]3(CO)[C@H]4[C@H](O)C[C@]5(C)[C@@H](C6=CC(=O)OC6)CC[C@]5(O)[C@@H]4CC[C@]3(O)C2)[C@H](O)[C@H](O)[C@H]1O`, the figure is 1.15 µM.
As for `Cc1cc(OCC(=O)Nc2ccncc2)cc(C)c1Br`, the figure is 3.18 µM.
With `c1ccc(CC2CCN(c3ncnc4sccc34)CC2)cc1`, the IC50 was 1.61 µM.
As for `CCCCCCCc1ccc(-c2ccc(O)cc2)nc1`, the figure is 3.26 µM.
With `COc1ccc(/C=N/NC(=S)Nc2ccccc2[N+](=O)[O-])cc1O`, the IC50 is 1.74 µM.
For the compound `NC(=O)C1CCN(c2ccc(S(=O)(=O)N3CCC(Cc4ccccc4)CC3)cn2)CC1`, the IC50 was 4.93 µM.
For the compound `Cn1c(CN2CCCCC2)nc2cc(NC(=O)c3cccc(Br)c3)ccc21`, the IC50 was 4.55 µM.
As for `O=C(Nc1ccn(Cc2ccccc2F)n1)c1ccc(COc2ccc(Br)cc2)cc1`, the IC50 was 2.9 µM.
In the case of `O=C(Nc1nccs1)c1ccc(S(=O)(=O)NCC2CCCCC2)cc1`, the IC50 was 3.03 µM.
Turning to `CCN(CC)c1ccc(NC(=O)CN2C(=O)CSc3ncccc32)c(C)c1`, the 50% inhibitory concentration (IC50) was 3.82 µM.
Regarding `O=S(=O)(c1ccc2c(c1)OCCO2)N1CCC(c2nc3ccccc3s2)CC1`, the IC50 was 6.73 µM.
Take `O=C1c2ccc(Br)cc2C(=O)N1c1ccc(Cc2ccncc2)cc1`: the IC50 is 5.65 µM.
Turning to `COC(=O)Oc1ccc(/C=N/NC(=O)CSCc2ccccc2Br)cc1OC`, the IC50 is 2.07 µM.
Regarding `CSc1ccc(NC(=O)N2CCN(c3nc4ccccc4s3)CC2)cc1`, the IC50 was 5.96 µM.
As for `Clc1ccc(OCc2cc(-c3ccccc3)no2)c(Cl)c1`, the IC50 is 8.02 µM.
On to `Cc1cccc(N2CCN(C(=O)CSCc3c(C)noc3C)CC2)c1C`, for which the half-maximal inhibitory concentration (IC50) is 4.55 µM.
As for `O=C(Nc1cccc(Cl)c1)Nc1ccnc(-c2cccnc2)n1`, the figure is 3.2 µM; as for `Cc1ccc(S(=O)(=O)N(C)c2ccc(C(=O)N3CCN(Cc4ccc5c(c4)OCO5)CC3)cc2)cc1`, 6.17 µM; as for `COc1ccc(C(=O)Nc2ccc3oc(Cc4ccc(Cl)cc4)nc3c2)cc1OC`, 6.74 µM.
Consider `CCCOc1ccc(CSc2nc3ccccc3[nH]2)cc1`, for which the IC50 is 6.53 µM.
Regarding `CC(=O)Nc1ccc(-c2csc(Nc3ccc(Cl)cn3)n2)cc1`, the IC50 was 6.34 µM.
`Cc1ccc(N2C(=O)c3ccccc3C2O)nc1` (stereo not drawn): the IC50 was 5.98 µM.
In the case of `CCCCOc1ccc(C(=O)Nc2ccncc2)cc1`, the IC50 is 2.11 µM.
Turning to `O=C(C1CCN(c2nc3ccc(Br)cc3s2)CC1)N1CCC2(CC1)OCCO2`, the IC50 was 2.79 µM.
With `CCOC(=O)c1oc2ccc(S(=O)(=O)Nc3ccc4c(c3)n(C)c(=O)n4C)cc2c1C`, the IC50 is 5.04 µM.
Regarding `CCOC(=O)C1=C(Cc2ccc(C)cc2)C(=O)c2ccccc2C1=O`, the IC50 was 7.04 µM.
As for `CCOc1cc(C(=S)N2CCOCC2)ccc1OS(=O)(=O)c1ccc(NC(C)=O)cc1`, the half-maximal inhibitory concentration (IC50) was 5.23 µM.
`CC1CCCCC1NS(=O)(=O)c1ccc(S(=O)(=O)NCc2ccncc2)cc1` (stereo not drawn): the IC50 was 3.28 µM.
On to `O=c1c2c(nc3n1CCCCC3)sc1c(O)cccc12`, for which the IC50 was 7.42 µM.
As to `CCOC(=O)c1sc2nc(CC(=O)OC)nc(NCc3ccc(Cl)cc3)c2c1C`, the IC50 was 7.66 µM.
With `CN1/C(=C\C(=O)C[n+]2ccc3ccccc3c2)C(C)(C)c2ccccc21`, the IC50 was 1.74 µM.
Turning to `Cc1ccc(-n2ncc3c(SCc4cccnc4)ncnc32)c(C)c1`, the IC50 is 5.76 µM.
With `Cc1nc2ccccc2cc1OCc1ccccc1` the figure was 4.76 µM; with `CCC(C)(C)c1ccc(OCCCC[n+]2cccc(C)c2)c(C(C)(C)CC)c1`, 4.09 µM.
With `O=C(Nc1ccc(Oc2ccccc2)cc1)c1cnc2n(c1=O)CCS2`, the IC50 is 1.61 µM.
In the case of `CC(=O)c1ccc(N=Nc2ccc(C)cc2)cc1`, the IC50 was 4.77 µM.
As to `COc1ccc(CC(=O)Nc2cccc(SC)c2)cc1OC`, the 50% inhibitory concentration (IC50) was 6.37 µM.
Regarding `CC1CCC2C(=O)N(c3ccccc3OC(=O)c3ccccc3)C(=O)C2C1` (stereo not drawn), the IC50 was 9.22 µM.
With `Nc1c(C(=O)NC2CCCCC2)nsc1C(=O)OCC(=O)NC1CCCCC1` the figure was 4.22 µM; with `Clc1ccc2ncc(-c3nnnn3-c3ccccc3)c(-c3ccccc3)c2c1`, 8.01 µM.
With `COC(=O)c1nn(-c2ccc3c(c2)CCN3C(C)=O)cc1O` the figure was 1.29 µM; with `O=C(COC(=O)c1n[nH]c2ccccc12)Nc1ccc(S(=O)(=O)N2CCCC2)cc1`, 4.5 µM; with `CCC(C)NC(=S)Nc1ccc(C(=O)OC)cc1` (stereo not drawn), 4.35 µM.
For `CNC(=O)Oc1cccc(-c2cn3cc(Cl)ccc3n2)c1`, the IC50 was 1.78 µM.
Turning to `CCCOc1ccc(/C=N/NC(=S)Nc2ccccc2[N+](=O)[O-])c(O)c1`, the IC50 was 1.05 µM.
Turning to `Cc1cc(NC(=O)c2cc(-c3cccs3)on2)nn1Cc1ccc(Cl)cc1`, the IC50 is 5.48 µM.
With `O=C1CCCN1c1ccc(S(=O)(=O)N2CCC(c3ccccc3)CC2)cc1` the figure was 4.5 µM.
On to `Cc1cc(C)n(Cc2ccc(NC(=O)c3ccc(COc4ccccc4Br)cc3)cc2)n1`, for which the IC50 was 7.64 µM.
As to `COc1ccc(NS(=O)(=O)c2ccc(NC(=O)c3ccc(N(C)S(C)(=O)=O)cc3)cc2)cc1`, the IC50 is 3.99 µM.
`O=C(Oc1cccc(Nc2ncnc3ccccc23)c1)c1ccccc1Cl`: the IC50 is 4.44 µM.
As for `O=C1C2C3c4ccccc4C(c4ccccc43)[C@@H]2c2nc3ccccc3n21` (stereo partly drawn), the figure is 4.51 µM.
For `Cc1nn2cc(-c3ncc(C(F)(F)F)cc3Cl)cnc2c1Br`, the IC50 result is “inactive”.
Consider `COc1ccccc1OCC(=O)c1[nH]c(C)c(C(C)=O)c1C`, for which the IC50 is 5.33 µM.
As to `O=C(Nc1ccc(Cc2ccncc2)cc1)c1ccc(S(=O)(=O)N2CCOCC2)cc1`, the IC50 was 4.31 µM.
With `Nc1cc(-c2ccccc2)nn1Cc1ccc(Cl)cc1`, the IC50 is 6.76 µM.
Regarding `Cc1cc(OCC(=O)Nc2ccncc2)ccc1Br`, the IC50 was 6.7 µM.
With `COc1ccc(/C=N/NC(=S)Nc2cccc(C(=O)O)c2)cc1` the figure was 4.56 µM; with `CC(=O)c1cn(CC(=O)Nc2ccccc2C)c2ccccc12`, 5.07 µM.
In the case of `Cc1ccc(-c2cn3cc([N+](=O)[O-])ccc3n2)cc1`, the IC50 is 4.09 µM.
With `Cn1c(=O)oc2cc(S(=O)(=O)N3CCCC(C(=O)N4CC=C(c5ccccc5)CC4)C3)ccc21` (stereo not drawn) the figure was 5.41 µM; with `CN1/C(=C\C(=O)C[n+]2ccc(C(=O)c3ccccc3)cc2)C(C)(C)c2ccccc21`, 5.22 µM.
As for `O=C(Nc1cccc(O)c1)c1noc2c1CCc1ccccc1-2`, the figure is 3.55 µM; as for `Cc1nc2ccccc2cc1OCc1ccc(F)cc1`, 3.47 µM; as for `Cc1cccc(-c2nc3cc(NC(=O)C4CCCO4)ccc3o2)c1` (stereo not drawn), 6.32 µM.
As to `O=C(Oc1ccccc1N1C(=O)C2CCCCC2C1=O)c1ccccc1` (stereo not drawn), the IC50 was 7.93 µM.
On to `C[C@H]1CCC[C@@H](O)CCC/C=C/c2cc(O)cc(O)c2C(=O)O1`, for which the IC50 was 5.25 µM.
As to `Cc1ccccc1OCCCCn1cnc2ccccc21`, the 50% inhibitory concentration (IC50) is 5.73 µM.
For `CNc1ccccc1C(C)(C)c1cc(-c2ccc(F)cc2)no1`, the IC50 is 5.41 µM.
Take `O=C(Nc1cccc(S(=O)(=O)Nc2ccccc2Cl)c1)c1ccc(Cl)nc1`: the IC50 is 5.13 µM.
As for `Clc1ccc(CSc2nnc(Cn3cnc4ccccc43)o2)cc1`, the figure is 5.02 µM; as for `Cc1csc(NC(=O)c2cc3c(s2)CCCC3)n1`, 3.82 µM; as for `CCOC(=O)Cc1csc(SCC(=O)c2c(N)n(CC(C)C)c(=O)n(C)c2=O)n1`, 3.7 µM.
For `CN(C)S(=O)(=O)Oc1cccc(C(=O)Nc2ccc(Cl)cc2)c1`, the IC50 is 5.23 µM.
Consider `Cc1ccc2c(C)nc(Nc3nc(CSc4nc5ccccc5[nH]4)cc(=O)[nH]3)nc2c1`, for which the IC50 was 5.32 µM.
Consider `O=C(Nc1ccncc1)c1ccc(-c2ccccc2)cc1`, for which the IC50 was 2.16 µM.
Take `Cc1ccc(Cl)cc1N1CCN(C(=O)COc2ccc(S(=O)(=O)NC(C)C)cc2)CC1`: the IC50 was 7.8 µM.
As to `COc1ccc(Br)cc1/C(C)=N/NC1=NCCN1`, the IC50 is 5.44 µM.
As to `CC(C)Cn1c(N)c(C(=O)CSc2ccccc2)c(=O)n(C)c1=O`, the IC50 is 5.57 µM.
With `CCOc1ncccc1C(=O)OCC(=O)Nc1ccc(-c2nc3ccc(C)cc3s2)cc1` the figure was 3.25 µM; with `Cc1nc(CNS(=O)(=O)c2ccc(Oc3ccccc3)cc2)cs1`, 5.54 µM.
In the case of `Cc1ccsc1/C=C1\CCc2ccccc2C1=O`, the IC50 is 5.04 µM.
Regarding `COc1cc(OC)cc(C(=O)Nc2ccc(-c3nc4ccccc4o3)cc2)c1`, the IC50 result was “inactive”.
As to `NNC(=O)c1cccc(COc2ccccc2Br)c1`, the IC50 is 3.25 µM.
On to `O=C(COc1ccc2ccccc2c1)Nc1ccncc1`, for which the IC50 was 6.11 µM.
As for `CN(C)S(=O)(=O)c1ccc(C(=O)Nc2nc(-c3cccs3)cs2)cc1`, the figure is 8.64 µM; as for `COC(=O)c1cccc(NC(=O)CSc2nc3cccnc3n2C)c1`, 5.35 µM.
For `COc1ccc(CC(=O)Nc2cccc(-c3nnc(-c4cccc(C)c4)o3)c2)cc1OC`, the IC50 was 3.32 µM.
Take `Nc1cc(-c2ccc(Br)cc2)nn1Cc1ccccc1`: the IC50 was 4.05 µM.
As to `O=C(Nc1ccc(Oc2ccccc2)cc1)C1CCN(c2c3c(nc4ncnn24)CCC3)CC1`, the IC50 was 6.45 µM.
Turning to `O=C(Nc1ccn(Cc2ccccc2F)n1)c1ccc(COc2ccccc2Cl)cc1`, the IC50 was 5.12 µM.
Regarding `CCOC(=O)c1ccc(NC(=O)c2ccc(CN3CCOCC3)cc2)cc1`, the half-maximal inhibitory concentration (IC50) is 2.9 µM.
Take `COc1cccc(-c2cc(C(=O)Nc3cccc(O)c3)no2)c1`: the IC50 was 4.99 µM.
With `COc1ccc(C)cc1-n1nnnc1SCn1nnc2ccccc2c1=O`, the IC50 was 7.58 µM.
`CC[n+]1ccccc1/C=C/c1ccc(N(C)C)cc1`: the IC50 was 2.94 µM.
Consider `O=C(CSc1ccc2ccccc2c1)Nc1ccncc1`, for which the IC50 was 7.66 µM.
